Measurements reported in patent publication US9815787B2, “Sulfonamide derivative or pharmaceutically acceptable acid addition salt thereof” (UNIVERSITY OF TSUKUBA, priority 2013, dated 2017).

Target: T1, OX2R (Homo sapiens, UniProt O43614)
T1 construct: expressed in transfected cells; host or cells: CHO (Chinese hamster ovary) cells constitutively expressing the OX2R gene and NFAT-luciferase (CHOOX2R)
T1 sequence (O43614 1-444): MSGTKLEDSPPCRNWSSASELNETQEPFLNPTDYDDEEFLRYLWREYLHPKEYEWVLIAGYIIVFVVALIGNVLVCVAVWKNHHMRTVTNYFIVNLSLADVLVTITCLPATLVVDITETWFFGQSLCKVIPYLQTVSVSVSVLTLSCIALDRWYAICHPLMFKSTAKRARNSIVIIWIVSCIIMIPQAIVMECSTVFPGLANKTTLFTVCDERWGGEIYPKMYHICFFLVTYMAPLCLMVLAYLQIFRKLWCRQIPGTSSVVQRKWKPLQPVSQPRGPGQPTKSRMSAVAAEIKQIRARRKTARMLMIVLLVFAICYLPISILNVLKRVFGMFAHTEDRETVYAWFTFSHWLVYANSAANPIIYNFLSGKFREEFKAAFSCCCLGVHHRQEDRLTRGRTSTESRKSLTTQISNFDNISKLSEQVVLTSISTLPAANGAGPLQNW
Assay: Evaluation of agonist activity against OX2R (CHOOX2R cells, Fura2AM fluorescence, FDSS3000)
Assay type: cell-based
Conditions: relative to orexin-A as full agonist (100%), CHOOX2R cells; for Response (0.1 μM (%)): test compound 0.1 μM; for Response (1.0 μM (%)): test compound 1.0 μM; for Response (10 μM (%)): test compound 10 μM
Procedure: Evaluation of Agonist Activity Against OX2R
NFAT-luciferase gene and OX2R gene were each constitutively expressed in CHO cell, which is a cell line derived from Chinese hamster ovary to establish a cell line (CHOOX2R). The cells thereof were sown on a 96 well plate at 10000 cells/well, and cultured in a 5% FBS-added DMEM medium for 48 hr. […] After washing, HEPES buffer (75 μL) was added, a test compound solution (25 μL) was added, and changes in the fluorescence intensity were measured by FDSS3000 (Hamamatsu Photonics K.K.). The test compound was dissolved in DMSO (final concentration of DMSO was 1%), and diluted with HEPES buffer to a final concentration of 0.1 μM, 1.0 μM or 10 μM.

Response (0.1 μM (%))	Response (1.0 μM (%))	Response (10 μM (%))	SMILES
<5%	21%	57%	COc1ccccc1C(=O)NCCNc1cccc(NS(=O)(=O)c2cc(-c3ccccc3F)ccc2OC)c1 [Example 1, N-(2-((3-(2′-fluoro-4-methoxy-[1,1′-biphenyl]-3-ylsulfonamide)phenyl)amino)ethyl)-2-methoxybenzamide]
<5%	27%	67%	COc1cccc(C(=O)NCCNc2cccc(NS(=O)(=O)c3cc(-c4ccccc4F)ccc3OC)c2)c1 [Example 2, N-(2-((3-(2′-fluoro-4-methoxy-[1,1′-biphenyl]-3-ylsulfonamide)phenyl)amino)ethyl)-3-methoxybenzamide]
<5%	11%	50%	COc1ccc(C(=O)NCCNc2cccc(NS(=O)(=O)c3cc(-c4ccccc4F)ccc3OC)c2)cc1 [Example 3, N-(2-((3-(2′-fluoro-4-methoxy-[1,1′-biphenyl]-3-ylsulfonamide)phenyl)amino)ethyl)-4-methoxybenzamide]
<5%	<5%	17%	COc1ccc(Br)cc1C(=O)NCCNc1cccc(NS(=O)(=O)c2cc(-c3ccccc3F)ccc2OC)c1 [Example 4, 5-bromo-N-(2-((3-(2′-fluoro-4-methoxy-[1,1′-biphenyl]-3-ylsulfonamide)phenyl)amino)ethyl)-2-methoxybenzamide]
<5%	<5%	23%	COc1ccc(N(C)C)cc1C(=O)NCCNc1cccc(NS(=O)(=O)c2cc(-c3ccccc3F)ccc2OC)c1 [Example 5, 5-(dimethylamino)-N-(2-((3-(2′-fluoro-4-methoxy-[1,1′-biphenyl]-3-ylsulfonamide)phenyl)amino)ethyl)-2-methoxybenzamide]
<5%	<5%	7%	COc1ccc(-c2ccccc2F)cc1S(=O)(=O)Nc1cccc(NCCNC(=O)c2ccccc2O)c1 [Example 6, N-(2-((3-(2′-fluoro-4-methoxy-[1,1′-biphenyl]-3-ylsulfonamide)phenyl)amino)ethyl)-2-hydroxybenzamide]
10%	62%	145%	COc1ccc(-c2ccccc2F)cc1S(=O)(=O)Nc1cccc(NCCNC(=O)c2ccccc2Cl)c1 [Example 7, 2-chloro-N-(2-((3-(2′-fluoro-4-methoxy-[1,1′-biphenyl]-3-ylsulfonamide)phenyl)amino)ethyl)benzamide]
<5%	9%	46%	COc1ccc(-c2ccccc2F)cc1S(=O)(=O)Nc1cccc(NCCNC(=O)c2cccc(Cl)c2)c1 [Example 8, 3-chloro-N-(2-((3-(2′-fluoro-4-methoxy-[1,1′-biphenyl]-3-ylsulfonamide)phenyl)amino)ethyl)benzamide]
<5%	<5%	<5%	COc1ccc(-c2ccccc2F)cc1S(=O)(=O)Nc1cccc(NCCNC(=O)c2ccc(Cl)cc2)c1 [Example 9, 4-chloro-N-(2-((3-(2′-fluoro-4-methoxy-[1,1′-biphenyl]-3-ylsulfonamide)phenyl)amino)ethyl)benzamide]
<5%	<5%	41%	COc1ccccc1C(=O)NCCNc1cccc(NS(=O)(=O)c2cc(-c3ccccc3Cl)ccc2OC)c1 [Example 10, N-(2-((3-(2′-chloro-4-methoxy-[1,1′-biphenyl]-3-ylsulfonamide)phenyl)amino)ethyl)-2-methoxybenzamide]
<5%	17%	23%	COc1cccc(C(=O)NCCNc2cccc(NS(=O)(=O)c3cc(-c4ccccc4Cl)ccc3OC)c2)c1 [Example 11, N-(2-((3-(2′-chloro-4-methoxy-[1,1′-biphenyl]-3-ylsulfonamide)phenyl)amino)ethyl)-3-methoxybenzamide]
<5%	44%	73%	COc1ccccc1C(=O)NCCNc1cccc(NS(=O)(=O)c2cc(-c3ccccc3OC)ccc2OC)c1 [Example 12, N-(2-((3-(2′,4-dimethoxy-[1,1′-biphenyl]-3-ylsulfonamide)phenyl)amino)ethyl)-2-methoxybenzamide]
<5%	64%	99%	COc1cccc(C(=O)NCCNc2cccc(NS(=O)(=O)c3cc(-c4ccccc4OC)ccc3OC)c2)c1 [Example 13, N-(2-((3-(2′,4-dimethoxy-[1,1′-biphenyl]-3-ylsulfonamide)phenyl)amino)ethyl)-3-methoxybenzamide]
<5%	<5%	8%	COc1ccc(-c2ccccc2F)cc1S(=O)(=O)Nc1cccc(NCCNC(=O)c2ccccn2)c1 [Example 14, N-(2-((3-(2′-fluoro-4-methoxy-[1,1′-biphenyl]-3-ylsulfonamide)phenyl)amino)ethyl)picolinamide]
<5%	<5%	6%	COc1ccc(-c2ccccc2F)cc1S(=O)(=O)Nc1cccc(NCCNC(=O)c2cccnc2)c1 [Example 15, N-(2-((3-(2′-fluoro-4-methoxy-[1,1′-biphenyl]-3-ylsulfonamide)phenyl)amino)ethyl)nicotineamide]
<5%	<5%	<5%	COc1ccc(-c2ccccc2F)cc1S(=O)(=O)Nc1cccc(NCCNC(=O)c2ccncc2)c1 [Example 16, N-(2-((3-(2′-fluoro-4-methoxy-[1,1′-biphenyl]-3-ylsulfonamide)phenyl)amino)ethyl)isonicotinamide]
<5%	18%	182%	COc1ccccc1C(=O)NCCNc1cccc(NS(=O)(=O)c2cc(-c3c(F)cccc3F)ccc2OC)c1 [Example 17, N-(2-((3-(2′,6′-difluoro-4-methoxy-[1,1′-biphenyl]-3-ylsulfonamide)phenyl)amino)ethyl)-2-methoxybenzamide]
<5%	13%	151%	COc1cccc(C(=O)NCCNc2cccc(NS(=O)(=O)c3cc(-c4c(F)cccc4F)ccc3OC)c2)c1 [Example 18, N-(2-((3-(2′,6′-difluoro-4-methoxy-[1,1′-biphenyl]-3-ylsulfonamide)phenyl)amino)ethyl)-3-methoxybenzamide]
<5%	8%	143%	COc1ccccc1C(=O)NCCNc1cccc(NS(=O)(=O)c2cc(-c3cc(F)ccc3F)ccc2OC)c1 [Example 19, N-(2-((3-(2′,5′-difluoro-4-methoxy-[1,1′-biphenyl]-3-ylsulfonamide)phenyl)amino)ethyl)-2-methoxybenzamide]
<5%	13%	180%	COc1cccc(C(=O)NCCNc2cccc(NS(=O)(=O)c3cc(-c4cc(F)ccc4F)ccc3OC)c2)c1 [Example 20, N-(2-((3-(2′,5′-difluoro-4-methoxy-[1,1′-biphenyl]-3-ylsulfonamide)phenyl)amino)ethyl)-3-methoxybenzamide]
<5%	<5%	11%	COc1cccc(C(=O)NCCNc2cccc(NS(=O)(=O)c3cc(-c4ccccc4C)ccc3OC)c2)c1 [Example 21, 3-methoxy-N-(2-((3-(4-methoxy-2′-methyl-[1,1′-biphenyl]-3-ylsulfonamide)phenyl)amino)ethyl)benzamide]
<5%	15%	21%	COc1cccc(C(=O)NCCNc2cccc(NS(=O)(=O)c3cc(-c4ccccc4O)ccc3OC)c2)c1 [Example 22, N-(2-((3-(2′-hydroxy-4-methoxy-[1,1′-biphenyl]-3-ylsulfonamide)phenyl)amino)ethyl)-3-methoxybenzamide]
<5%	<5%	<5%	COc1ccccc1C(=O)NCCNc1cccc(NS(=O)(=O)c2cc(-c3c(F)cccc3OC)ccc2OC)c1 [Example 23, N-(2-((3-(2′-fluoro-4,6′-dimethoxy-[1,1′-biphenyl]-3-ylsulfonamide)phenyl)amino)ethyl)-2-methoxybenzamide]
